Like-named read-outs stand apart in the source and are kept apart here.
Legend:
[1] = tested on: HepG2; assay: MTT assay, HepG2 cells; type: cell-based, human; conditions: read-out: Half maximal inhibitory concentration (IC50) values, HepG2
Source text: (§1) The human hepatocellular carcinoma cell line (HepG2), human hepatocellular carcinoma cell line (Bel-7402), human cervical cancer cell line (Hela), human breast adenocarcinoma cell line (MCF-7) and Madin-Darby canine kidney cell line (MDCK) were obtained from the Chinese Academy of Medical Sciences and Peking Union Medical College. Cultures were maintained as monolayer in RPMI-1640/DMEM supplemented with 10% (v/v) fetal bovine serum (FBS) and 1% (v/v) penicillin/streptomycin (Thermo Technologies, New York, NY, United States) under a humidified atmosphere containing 5% CO2 at 37°C. The BoA derivatives and positive control drugs (BoA and DDP) under study were dissolved in DMSO (Sigma, St. Louis, MO, United States) and added at required concentrations to the cell culture. Cells incubated without the preparations served as the control.
(§2) The antitumor activity was assessed by MTT assay, as previously reported ([Fang et al., 2018]). Each tested compound and positive control drugs were dissolved in DMSO and diluted with the medium to the test concentrations, and the final concentration of DMSO in the culture medium was controlled at less than 0.5% (v/v). Briefly, cells were cultured at 37°C and dispersed in replicates in 96-well plates with HepG2, Bel-7402, HeLa, MCF-7 and MDCK for 24 h. Fresh medium along with compounds (BoAA-BoAE, BoA2A-BoA2G, BoA3A-BoA3G, BoA4A-BoA4G) at different concentrations was then added to individual wells and incubated for 72 h, with BoA and DDP as the positive control. Experiments on FXR expression were separated into three groups: Control (PBS), BoA2C (8 μM), and BoA2C (8 μM) + DY268 (10 μM) ([Giordano et al., 2016]), with three repeating wells in each. In separate wells, BoA2C and DY268 were introduced and cultured for 72 h. After 72 h, the cell was incubated with MTT solution (0.5 mg/ml) for an additional 4 h at 37°C. The produced formazan crystals were solubilized with DMSO, and the optical density of solution was measured at 570 nm using a plate reader (BIORAD 550 spectrophotometer, Bio-rad Life Science Development Ltd., Beijing, China). Wells without drugs were used to be blanks. The IC50 values were defined as the concentration of compounds that produced a 50% proliferation inhibition of surviving cells and calculated using the Graph Pad Prism 5. The inhibitory rate was calculated in the following Equation 1, where OD is the optical density: % inhibition=[1−(OD Sample group−OD Blank group)/(OD Control group−OD Blank group)]×100% (1)

[2] = tested on: Bel-7402; assay: MTT assay, Bel-7402 cells; type: cell-based, human; conditions: read-out: Half maximal inhibitory concentration (IC50) values, Bel-7402
Source text: as §1, §2

[3] = tested on: MCF-7; assay: MTT assay, MCF-7 cells; type: cell-based, human; conditions: read-out: Half maximal inhibitory concentration (IC50) values, MCF-7
Source text: as §1, §2

[4] = tested on: Hela; assay: MTT assay, Hela cells; type: cell-based, human; conditions: 72 h incubation, read-out: Half maximal inhibitory concentration (IC50) values, Hela
Source text: as §1, §2

[5] = tested on: MDCK; assay: MTT assay, MDCK normal cell line; type: cell-based, canine; conditions: 72 h incubation, normal cell line, read-out: Half maximal inhibitory concentration (IC50) values, MDCK
Source text: as §1, §2

[6] = Homo sapiens, HepG2, 72 h incubation
[7] = Homo sapiens, Bel-7402, 72 h incubation
[8] = Homo sapiens, MCF7, 72 h incubation

C=C(C)[C@@H]1CC[C@]2(C(=O)OCCOC(=O)c3cnccn3)CC[C@]3(C)[C@H](CC[C@@H]4[C@@]5(C)CCC(=O)C(C)(C)[C@@H]5CC[C@]43C)[C@@H]12 [BoA2A, (Pyrazin-2-acyloxy)-ethyl-3-oxolup-20(29)-en-28-oate]
IC50 [1, 6]: 13.7 ± 0.25 µM | melting point: 85 to 87 °C | IC50 [2, 7]: 8.76 ± 0.84 µM | IC50 [3, 8]: 9.86 ± 0.36 µM | IC50 ([4]; Homo sapiens, HeLa): 25 ± 0.97 µM | IC50 ([5]; Canis lupus familiaris, MDCK): > 30 µM

C=C(C)[C@@H]1CC[C@]2(C(=O)OCCOC(=O)c3nccnc3C)CC[C@]3(C)[C@H](CC[C@@H]4[C@@]5(C)CCC(=O)C(C)(C)[C@@H]5CC[C@]43C)[C@@H]12 [BoA2B, (3-Methylpyrazin-2-acyloxy)-ethyl-3-oxolup-20(29)-en-28-oate]
IC50 [1, 6]: 13.4 ± 1.82 µM | melting point: 60 to 62 °C | IC50 [2, 7]: 10.1 ± 1.4 µM | IC50 [3, 8]: > 30 µM | IC50 ([4]; Homo sapiens, HeLa): 15.5 ± 0.81 µM | IC50 ([5]; Canis lupus familiaris, MDCK): > 30 µM

C=C(C)[C@@H]1CC[C@]2(C(=O)OCCOC(=O)c3cncc(C)n3)CC[C@]3(C)[C@H](CC[C@@H]4[C@@]5(C)CCC(=O)C(C)(C)[C@@H]5CC[C@]43C)[C@@H]12 [BoA2D, (6-Methylpyrazin-2-acyloxy)-ethyl-3-oxolup-20(29)-en-28-oate]
IC50 [1, 6]: 7.32 ± 2.88 µM | melting point: 139 to 141 °C | IC50 [2, 7]: 8.22 ± 0.43 µM | IC50 [3, 8]: 8.32 ± 1.28 µM | IC50 ([4]; Homo sapiens, HeLa): 14.9 ± 1.84 µM | IC50 ([5]; Canis lupus familiaris, MDCK): > 30 µM

C=C(C)[C@@H]1CC[C@]2(C(=O)OCCOC(=O)c3ccncn3)CC[C@]3(C)[C@H](CC[C@@H]4[C@@]5(C)CCC(=O)C(C)(C)[C@@H]5CC[C@]43C)[C@@H]12 [BoA2F]
IC50 [1, 6]: > 30 µM | melting point: 72 to 74 °C | IC50 [2, 7]: > 30 µM | IC50 [3, 8]: 29.7 ± 0.37 µM | IC50 ([4]; Homo sapiens, HeLa): 15.2 ± 1.07 µM | IC50 ([5]; Canis lupus familiaris, MDCK): 12.5 ± 1.22 µM

C=C(C)[C@@H]1CC[C@]2(C(=O)OCCOC(=O)c3ccnnc3)CC[C@]3(C)[C@H](CC[C@@H]4[C@@]5(C)CCC(=O)C(C)(C)[C@@H]5CC[C@]43C)[C@@H]12 [BoA2G]
IC50 [1, 6]: > 30 µM | melting point: 130 to 132 °C | IC50 [2, 7]: 24.8 ± 2.43 µM | IC50 [3, 8]: > 30 µM | IC50 ([4]; Homo sapiens, HeLa): 5.81 ± 0.24 µM | IC50 ([5]; Canis lupus familiaris, MDCK): 13 ± 0.46 µM

C=C(C)[C@@H]1CC[C@]2(C(=O)OCCCOC(=O)c3cnccn3)CC[C@]3(C)[C@H](CC[C@@H]4[C@@]5(C)CCC(=O)C(C)(C)[C@@H]5CC[C@]43C)[C@@H]12 [BoA3A, (Pyrazin-2-acyloxy)-propyl-3-oxolup-20(29)-en-28-oate]
IC50 [1, 6]: 4.82 ± 0.3 µM | melting point: 74 to 76 °C | IC50 [2, 7]: 6.09 ± 0.12 µM | IC50 [3, 8]: 6.85 ± 1.82 µM | IC50 ([4]; Homo sapiens, HeLa): 20.4 ± 0.56 µM | IC50 ([5]; Canis lupus familiaris, MDCK): > 30 µM

C=C(C)[C@@H]1CC[C@]2(C(=O)OCCCOC(=O)c3nccnc3C)CC[C@]3(C)[C@H](CC[C@@H]4[C@@]5(C)CCC(=O)C(C)(C)[C@@H]5CC[C@]43C)[C@@H]12 [BoA3B, (3-Methylpyrazin-2-acyloxy)-propyl-3-oxolup-20(29)-en-28-oate]
IC50 [1, 6]: 13.2 ± 1.2 µM | melting point: 54 to 55 °C | IC50 [2, 7]: 14.2 ± 2.1 µM | IC50 [3, 8]: 27.9 ± 1.06 µM | IC50 ([4]; Homo sapiens, HeLa): 15.7 ± 2.15 µM | IC50 ([5]; Canis lupus familiaris, MDCK): > 30 µM

C=C(C)[C@@H]1CC[C@]2(C(=O)OCCCOC(=O)c3cnc(C)cn3)CC[C@]3(C)[C@H](CC[C@@H]4[C@@]5(C)CCC(=O)C(C)(C)[C@@H]5CC[C@]43C)[C@@H]12 [BoA3C, (5-Methylpyrazin-2-acyloxy)-propyl-3-oxolup-20(29)-en-28-oate]
IC50 [1, 6]: > 30 µM | melting point: 57 to 58 °C | IC50 [2, 7]: 9.37 ± 1.31 µM | IC50 [3, 8]: 10 ± 0.19 µM | IC50 ([4]; Homo sapiens, HeLa): 30 ± 2.65 µM | IC50 ([5]; Canis lupus familiaris, MDCK): > 30 µM

C=C(C)[C@@H]1CC[C@]2(C(=O)OCCCOC(=O)c3cncc(C)n3)CC[C@]3(C)[C@H](CC[C@@H]4[C@@]5(C)CCC(=O)C(C)(C)[C@@H]5CC[C@]43C)[C@@H]12 [BoA3D, (6-Methylpyrazin-2-acyloxy)-propyl-3-oxolup-20(29)-en-28-oate]
IC50 [1, 6]: 8.65 ± 0.6 µM | melting point: 59 to 60 °C | IC50 [2, 7]: 6.42 ± 0.66 µM | IC50 [3, 8]: 5.6 ± 0.25 µM | IC50 ([4]; Homo sapiens, HeLa): 9.5 ± 0.28 µM | IC50 ([5]; Canis lupus familiaris, MDCK): 17 ± 3.01 µM

C=C(C)[C@@H]1CC[C@]2(C(=O)OCCCCOC(=O)c3cnc(C)cn3)CC[C@]3(C)[C@H](CC[C@@H]4[C@@]5(C)CCC(=O)C(C)(C)[C@@H]5CC[C@]43C)[C@@H]12 [BoA4C, (5-Methylpyrazin-2-acyloxy)-butyl-3-oxolup-20(29)-en-28-oate]
IC50 [1, 6]: 22.2 ± 1.76 µM | IC50 [2, 7]: 5.53 ± 0.46 µM | IC50 [3, 8]: 9.88 ± 1.49 µM | IC50 ([4]; Homo sapiens, HeLa): 17.9 ± 0.45 µM | IC50 ([5]; Canis lupus familiaris, MDCK): > 30 µM

C=C(C)[C@@H]1CC[C@]2(C(=O)OCCCCOC(=O)c3cncc(C)n3)CC[C@]3(C)[C@H](CC[C@@H]4[C@@]5(C)CCC(=O)C(C)(C)[C@@H]5CC[C@]43C)[C@@H]12 [BoA4D, (6-Methylpyrazin-2-acyloxy)-butyl-3-oxolup-20(29)-en-28-oate]
IC50 [1, 6]: > 30 µM | IC50 [2, 7]: 16.3 ± 0.9 µM | IC50 [3, 8]: > 30 µM | IC50 ([4]; Homo sapiens, HeLa): 15.7 ± 2.15 µM | IC50 ([5]; Canis lupus familiaris, MDCK): > 30 µM

C=C(C)[C@@H]1CC[C@]2(C(=O)OCCCCOC(=O)c3ccncn3)CC[C@]3(C)[C@H](CC[C@@H]4[C@@]5(C)CCC(=O)C(C)(C)[C@@H]5CC[C@]43C)[C@@H]12 [BoA4F]
IC50 [1, 6]: 30.2 ± 1.51 µM | IC50 [2, 7]: > 30 µM | IC50 [3, 8]: 24.5 ± 5.17 µM | IC50 ([4]; Homo sapiens, HeLa): 25.9 ± 0.57 µM | IC50 ([5]; Canis lupus familiaris, MDCK): 27.22 ± 0.25 µM

C=C(C)[C@@H]1CC[C@]2(C(=O)OCCCCOC(=O)c3ccnnc3)CC[C@]3(C)[C@H](CC[C@@H]4[C@@]5(C)CCC(=O)C(C)(C)[C@@H]5CC[C@]43C)[C@@H]12 [BoA4G, (Pyridazin-2-acyloxy)-butyl-3-oxolup-20(29)-en-28-oate]
IC50 [1, 6]: 29.27 ± 0.22 µM | IC50 [2, 7]: 19.4 ± 1.2 µM | IC50 [3, 8]: 12.8 ± 0.15 µM | IC50 ([4]; Homo sapiens, HeLa): 7.46 ± 1.99 µM | IC50 ([5]; Canis lupus familiaris, MDCK): 16.9 ± 1.03 µM

C=C(C)[C@@H]1CC[C@]2(C(=O)O)CC[C@]3(C)[C@H](CC[C@@H]4[C@@]5(C)CCC(=O)C(C)(C)[C@@H]5CC[C@]43C)[C@@H]12 [BoA, betulonic acid]
IC50 [1, 6]: > 30 µM | IC50 [2, 7]: > 30 µM | IC50 [3, 8]: > 30 µM | IC50 ([4]; Homo sapiens, HeLa): 27 ± 1.06 µM | IC50 ([5]; Canis lupus familiaris, MDCK): > 30 µM

C=C(C)[C@@H]1CC[C@]2(C(=O)OCc3cnccn3)CC[C@]3(C)[C@H](CC[C@@H]4[C@@]5(C)CCC(=O)C(C)(C)[C@@H]5CC[C@]43C)[C@@H]12 [BoAA, Pyrazin-2-ylmethyl-3-oxolup-20(29)-en-28-oate]
IC50 [1, 6]: 13.5 ± 1.8 µM | IC50 [2, 7]: 8.16 ± 2.08 µM | IC50 [3, 8]: 15.7 ± 0.55 µM | IC50 ([4]; Homo sapiens, HeLa): 18.3 ± 1.63 µM | IC50 ([5]; Canis lupus familiaris, MDCK): > 30 µM

N.N.[Cl][Pt][Cl] [DDP, cisplatin, reference compound]
IC50 ([1]; 72 h incubation): 5.23 ± 1.03 µM | IC50 ([2]; 72 h incubation): 8.86 ± 1.32 µM | IC50 ([3]; 72 h incubation): 6.98 ± 0.32 µM | IC50 [4]: 9.84 ± 2.54 µM | IC50 [5]: 13.7 ± 1.45 µM

From article PMC9486541, “Design, synthesis and cytotoxic evaluation of novel betulonic acid-diazine derivatives as potential antitumor agents” (Frontiers in Chemistry, 2022)
